Source: paper PMC12881674, “Activation of TRPV3 channels in bladder cancer cells stimulates ATP release” (Molecular Pharmacology, 2025)

Biological target: T1, human TRPV3 (Homo sapiens, UniProt Q8NET8)
T1 construct: host or cells: HEK293
T1 sequence (Q8NET8 1-790): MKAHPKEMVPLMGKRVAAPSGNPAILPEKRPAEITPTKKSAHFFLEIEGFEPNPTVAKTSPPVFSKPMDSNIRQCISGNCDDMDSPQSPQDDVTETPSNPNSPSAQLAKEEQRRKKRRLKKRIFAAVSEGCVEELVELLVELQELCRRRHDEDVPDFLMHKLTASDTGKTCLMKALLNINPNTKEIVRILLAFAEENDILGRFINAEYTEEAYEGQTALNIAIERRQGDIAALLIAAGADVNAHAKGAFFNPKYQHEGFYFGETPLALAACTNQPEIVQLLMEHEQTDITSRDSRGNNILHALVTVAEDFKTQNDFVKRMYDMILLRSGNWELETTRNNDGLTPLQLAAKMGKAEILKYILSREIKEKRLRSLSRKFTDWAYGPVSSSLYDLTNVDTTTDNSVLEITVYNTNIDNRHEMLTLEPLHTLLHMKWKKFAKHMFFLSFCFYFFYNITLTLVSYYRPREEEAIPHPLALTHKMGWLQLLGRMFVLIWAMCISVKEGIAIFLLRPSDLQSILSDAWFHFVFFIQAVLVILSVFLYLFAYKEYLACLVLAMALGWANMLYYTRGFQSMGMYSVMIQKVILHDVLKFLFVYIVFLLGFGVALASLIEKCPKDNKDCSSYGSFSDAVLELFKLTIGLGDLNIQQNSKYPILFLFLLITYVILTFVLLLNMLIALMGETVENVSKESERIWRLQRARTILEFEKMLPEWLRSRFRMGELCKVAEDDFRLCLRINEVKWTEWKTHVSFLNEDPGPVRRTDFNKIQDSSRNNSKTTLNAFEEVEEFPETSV
Assay: fluo-4 fluorometric Ca2+ assay, concentration-response, HEK cells expressing human TRPV3
Type: cell-based
Details: HEK cells expressing human TRPV3, fluo-4, room temperature, mean ± SD back-transformed from log space, n=5; read-out: EC50 for human TRPV3 activation
Source text: KU-19-19 (DSMZ no. ACC 395), CAL-29 (DSMZ no. ACC 515), 647-V (DSMZ no. ACC 414), RT-4 (DSMZ no. ACC 412), and RT-112 (DSMZ no. ACC 418) bladder cancer cell lines were obtained from the Leibniz Institute DSMZ (German Collection of Microorganisms and Cell Cultures). Human TRPV3 (NM_145068, purchased from OriGene) and mouse TRPV3 (NM_001371006), rat TRPV1, mouse TRPV2, mouse TRPV4, human TRPM2, human TRPM8, and human TRPA1 were stably transfected in HEK293 cells as described before.[27] […]
All fluorometric Ca^2+ assays were performed in HBS buffer at room temperature. […] For the primary compound screening and the generation of concentration-response analyses, a robotic liquid handling station (Freedom Evo 150; Tecan) with a built-in custom-made fluorescence plate imager was used. […] Fluorescence was excited using a 470-nm light-emitting diode, and emitted light was imaged through a 515-nm–long pass filter with a cooled Zyla 5.5 camera (Andor). Fluorescence was recorded and processed under the control of the μ-Manager 2.0 gamma software (https://micro-manager.org.[28]). After recording baseline fluorescence, compounds were dispensed into the wells via the liquid handling device. […] For further analysis, fluorescence signals were calculated for each well, corrected for background intensities and normalized to the initial signals. […]

Which EC50 does the source give for `COC(=O)C12CN(Cc3ccccc3)CC1(C(=O)OC)CN(Cc1ccccc1)C2` (stereo not shown) [AV3-1] here?
Its EC50 is 7.2 ± 1.4 µM.
